In brackets after ≈: the same amount, converted by molar mass. Read-outs that look alike come from different tables or passages of the source.
How the values were obtained:
AECO001 (ATCC25922) = experiment: MIC broth microdilution, AECO001; type: cell-based, E. coli; conditions: Escherichia coli
Outline: (§1)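 Minimum inhibitory concentrations followed CLSI broth microdilution guidelines: cation-adjusted Mueller-Hinton broth, 2-fold serial drug dilutions, final inoculum 3×10^5–7×10^5 CFU/mL, ambient air at 35° C. for 18-24 hours. Quality-control strains and levofloxacin monitored performance.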

[1] = system: AECO063 (ATCC25922 bearing an acrAB mutation); experiment: microbe, parasite or virus in culture; type: cell-based, E. coli; conditions: Escherichia coli, ATCC25922, read-out: MIC AECO063
Outline: as §1

APAE001 (ATCC27853) = experiment: MIC broth microdilution, APAE001; type: cell-based, P. aeruginosa; conditions: Pseudomonas aeruginosa, ATCC27853, read-out: MIC APAE001, APAE001 (ATCC27853)
Outline: as §1

[2] = system: APAE006 (strain of P. aeruginosa in which all efflux pumps are inactivated); experiment: microbe, parasite or virus in culture; type: cell-based; conditions: Pseudomonas aeruginosa, read-out: MIC APAE006, APAE006, all efflux pumps inactivated
Outline: (§2)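 Broth microdilution (CLSI); CA-MHB; 3×10^5–7×10^5 CFU/mL final; 2-fold dilutions; 35° C., ambient air, 18-24 h. APAE006 lacks all active efflux pumps.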

[3] = system: APAE006 in the presence of 8 micrograms per milliliter of polymyxin B nonapeptide; type: cell-based, P. aeruginosa; conditions: APAE006 with 8 micrograms per milliliter polymyxin B nonapeptide
Outline: as §2

[4] = system: AABA1060 (clinical isolate of Acinetobacter baumannii); experiment: MIC broth microdilution, AABA1060; type: cell-based; conditions: Acinetobacter baumannii, read-out: MIC AABA1060
Outline: as §1

[5] = system: ASAU001 (laboratory strain of S. aureus, ATCC29213); experiment: MIC broth microdilution, ASAU001; type: cell-based; conditions: Staphylococcus aureus, ATCC29213, read-out: MIC ASAU001
Outline: as §1

[6] = ATCC25922, read-out: MIC AECO001
[7] = ATCC25922, read-out: MIC AECO001 HSA AGP

Structure (SMILES) | MIC (AECO001 (ATCC25922); [6]) [µg/mL] | MIC (AECO001 (ATCC25922); [7]) [µg/mL] | MIC [1] [µg/mL] | MIC (APAE001 (ATCC27853)) [µg/mL] | MIC [2] [µg/mL] | MIC APAE006 + PMBN [3] | MIC [4] [µg/mL] | MIC [5] [µg/mL]
CC(C)/C=C/C#Cc1ccc(C(=O)N[C@H](C(=O)NO)C(C)(C)N)cc1 [Example 107-6] | < 2 | 2 to 16 (≈ 5.82 to 46.6 µM) | < 2 | 2 to 16 (≈ 5.82 to 46.6 µM) | < 2 | A (MIC's of 2.0 μg/mL or less = A) | < 2 | 16 to 64 (≈ 46.6 to 186 µM)
O=C(NC(C(=O)NO)C1(O)CC1)c1ccc(C#Cc2ccc(CN3CCOCC3)cc2)cc1 (stereo not drawn) [Example 137-24] | < 2 | 2 to 16 (≈ 4.45 to 35.6 µM) | < 2 | 2 to 16 (≈ 4.45 to 35.6 µM) | < 2 | A (MIC's of 2.0 μg/mL or less = A) | 2 to 16 (≈ 4.45 to 35.6 µM) | 16 to 64 (≈ 35.6 to 142 µM)
C[C@@H](O)[C@H](NC(=O)c1ccc(/C=C/C#Cc2ccccc2)cc1)C(=O)NO [Example 114-14] | < 2 | 2 to 16 (≈ 5.49 to 43.9 µM) | < 2 | 2 to 16 (≈ 5.49 to 43.9 µM) | < 2 | A (MIC's of 2.0 μg/mL or less = A) | < 2 | 16 to 64 (≈ 43.9 to 176 µM)
C[C@@H](N)[C@H](NC(=O)c1ccc(C#Cc2ccc(CNCC(F)(F)F)cc2)cc1)C(=O)NO [Example 137-16] | < 2 | 2 to 16 (≈ 4.46 to 35.7 µM) | < 2 | 2 to 16 (≈ 4.46 to 35.7 µM) | < 2 | A (MIC's of 2.0 μg/mL or less = A) | 2 to 16 (≈ 4.46 to 35.7 µM) | 16 to 64 (≈ 35.7 to 143 µM)
CC(C)C#CC#Cc1ccc(C(=O)NC(C(=O)NO)[C@@H](C)N)cc1 (stereo partly drawn) [Example 91-13] | < 2 | 2 to 16 (≈ 6.11 to 48.9 µM) | < 2 | < 2 | < 2 | A (MIC's of 2.0 μg/mL or less = A) | 2 to 16 (≈ 6.11 to 48.9 µM) | 2 to 16 (≈ 6.11 to 48.9 µM)
CC(C)(N)C(NC(=O)c1ccc(C#CC#Cc2ccncc2)cc1)C(=O)NO (stereo not drawn) [Example 88-6] | < 2 | 2 to 16 (≈ 5.31 to 42.5 µM) | < 2 | 2 to 16 (≈ 5.31 to 42.5 µM) | < 2 | A (MIC's of 2.0 μg/mL or less = A) | 2 to 16 (≈ 5.31 to 42.5 µM) | 16 to 64 (≈ 42.5 to 170 µM)
C[C@@H](O)[C@H](NC(=O)c1ccc(C#Cc2ccc(CNCC(F)F)cc2)cc1)C(=O)NO [Example 119-4] | < 2 | < 2 | < 2 | < 2 | < 2 | A (MIC's of 2.0 μg/mL or less = A) | 2 to 16 (≈ 4.64 to 37.1 µM) | 16 to 64 (≈ 37.1 to 148 µM)
O=C(CNC1CC1)NC[C@H](NC(=O)c1ccc(C#Cc2ccccc2)cc1)C(=O)NO [Example 132-1, N—[(S)-2-(2-Cyclopropylamino-acetylamino)-1-hydroxycarbamoyl-ethyl]-4-phenylethynyl-benzamide] | < 2 | 2 to 16 (≈ 4.76 to 38.1 µM) | < 2 | 2 to 16 (≈ 4.76 to 38.1 µM) | < 2 | A (MIC's of 2.0 μg/mL or less = A) | 2 to 16 (≈ 4.76 to 38.1 µM) | 16 to 64 (≈ 38.1 to 152 µM)
C[C@@H](N)[C@H](NC(=O)c1ccc(C#Cc2ccc(CN3CCC(F)CC3)cc2)cc1)C(=O)NO [Example 115-1, N-((2S,3R)-3-amino-1-(hydroxyamino)-1-oxobutan-2-yl)-4-((4-((4-fluoropiperidin-1-yl)methyl)phenyl)ethynyl)benzamide] | < 2 | 2 to 16 (≈ 4.42 to 35.4 µM) | < 2 | 2 to 16 (≈ 4.42 to 35.4 µM) | < 2 | A (MIC's of 2.0 μg/mL or less = A) | 2 to 16 (≈ 4.42 to 35.4 µM) | > 64
CC(C)(N)[C@H](NC(=O)c1ccc(C#CC#Cc2ccc(C(F)(F)F)cc2)cc1)C(=O)NO [Example 82-26] | < 2 | 16 to 64 (≈ 36.1 to 144 µM) | < 2 | 2 to 16 (≈ 4.51 to 36.1 µM) | 2 to 16 (≈ 4.51 to 36.1 µM) | A (MIC's of 2.0 μg/mL or less = A) | 2 to 16 (≈ 4.51 to 36.1 µM) | 2 to 16 (≈ 4.51 to 36.1 µM)
CC(C)C#C/C=C/c1ccc(C(=O)N[C@H](C(=O)NO)C(C)(C)N)cc1 [Example 114-19] | < 2 | 2 to 16 (≈ 5.82 to 46.6 µM) | < 2 | < 2 | < 2 | A (MIC's of 2.0 μg/mL or less = A) | < 2 | 2 to 16 (≈ 5.82 to 46.6 µM)
C[C@@H](N)[C@H](NC(=O)c1ccc(C#CC(O)c2ccccc2)cc1)C(=O)NO (stereo partly drawn) [Example 137-20] | 16 to 64 (≈ 43.5 to 174 µM) | 16 to 64 (≈ 43.5 to 174 µM) | 16 to 64 (≈ 43.5 to 174 µM) | 16 to 64 (≈ 43.5 to 174 µM) | 2 to 16 (≈ 5.44 to 43.5 µM) | A (MIC's of 2.0 μg/mL or less = A) | 2 to 16 (≈ 5.44 to 43.5 µM) | 16 to 64 (≈ 43.5 to 174 µM)

Reference: patent US9617256B2 (priority 2007, dated 2017)
